US20190365626A1, “HIGHLY EFFECTIVE PHOTOPROTECTIVE AGENTS” (3V Sigma S.P.A., priority 2018, published 2019)

Legend:
[1] = specific extinction E^11 (1% solution, 1 cm optical path); type: physicochemical; conditions: at 328 nm; solution containing 1% of the product, optical path of 1 cm
Excerpt: The efficacy of UV absorbers is characterised by the parameter E^11 (or E11), which corresponds to the extinction value measured at the maximum absorption wavelength of a solution containing 1% of the product in question, measured with an optical path of 1 cm. Such extinction is called “specific extinction”.

[2] = Solubility Test in emollients (cosmetic solvents); type: physicochemical
Experimental: The solubility of the sunscreens obtained in example 2 and (comparative) example 3 were evaluated in various emollients commonly used in suncare and daily skincare products: C12-15 alkyl benzoate, dibutyl adipate, caprylic/capric triglyceride and ethylhexyl salicylate.

[3] = in Caprylic/Capric Triglyceride

E^11 extinction [1]	solubility ([2]; in C12-15 Alkyl Benzoate) [% w/w %]	solubility [2, 3] [% w/w %]	solubility ([2]; in Dibutyl Adipate) [% w/w %]	solubility ([2]; in Ethylhexyl Salicylate) [% w/w %]	Structure (SMILES)
1431	15	15	20	25	CCCCC(CC)COC(=O)c1ccc(Nc2nc(Nc3ccc(-c4nc5cc(C(C)(C)CC)ccc5o4)cc3)nc(Nc3ccc(-c4nc5cc(C(C)(C)CC)ccc5o4)cc3)n2)cc1 (stereo not shown) [Example 2]
1395	5	<5	5	10	CCCCC(CC)COC(=O)c1ccc(Nc2nc(Nc3ccc(-c4nc5cc(C(C)(C)C)ccc5o4)cc3)nc(Nc3ccc(-c4nc5cc(C(C)(C)C)ccc5o4)cc3)n2)cc1 (stereo not shown) [Example 3]
